Laboratory results taken from ChEMBL document CHEMBL4190365, “Synthesis and antiproliferative properties of new hydrophilic esters of triterpenic acids” (Eur J Med Chem, 2017).

Key:
Format in all cases: functional, cell-based
[1] = test system: CCRF-CEM; experiment: Cytotoxicity in human CEM cells assessed as reduction in cell viability incubated for 72 hrs by calcein AM cytotoxicity assay; details: Homo sapiens, CCRF-CEM, 72 h
[2] = test system: MCF7; experiment: Cytotoxicity in human MCF7 cells assessed as reduction in cell viability incubated for 72 hrs by calcein AM cytotoxicity assay
[3] = test system: HeLa; experiment: Cytotoxicity in human HeLa cells assessed as reduction in cell viability incubated for 72 hrs by calcein AM cytotoxicity assay
[4] = test system: G-361; experiment: Cytotoxicity in human G361 cells assessed as reduction in cell viability incubated for 72 hrs by calcein AM cytotoxicity assay
[5] = test system: BJ; experiment: Cytotoxicity in human BJ cells assessed as reduction in cell viability incubated for 72 hrs by calcein AM cytotoxicity assay

**Q.** Which results are given for `CC(=O)O[C@H]1CC[C@]2(C)[C@H]3CC[C@@H]4C5=C(C(C)C)C(=O)C[C@]5(C(=O)OCCN5CCCCC5)CC[C@@]4(C)[C@]3(C)CC[C@H]2C1(C)C`?
**A.** IC50 [1]: 21.2 µM; IC50 ([2]; mcf7): 5.8 µM; IC50 ([3]; hela): 9.1 µM; IC50 ([4]; g-361): 7.2 µM; IC50 ([5]; bj): 44.6 µM

**Q.** `CC(C)[C@@H]1CC[C@]2(C(=O)OCCN3CCOCC3)CC[C@]3(C)[C@H](CC[C@@H]4[C@@]5(C)CC[C@H](O)C(C)(C)[C@@H]5CC[C@]43C)[C@@H]12` was tested. Which IC50 [1] did it give?
**A.** 45.8 µM

**Q.** And the IC50 ([2]; Homo sapiens, MCF7, 72 h)?
**A.** 37.6 µM

**Q.** What about the IC50 ([3]; Homo sapiens, HeLa, 72 h) of the same molecule?
**A.** 31.8 µM

**Q.** What about the IC50 ([4]; Homo sapiens, G-361, 72 h) of the same molecule?
**A.** 33.8 µM

**Q.** What about the IC50 ([5]; Homo sapiens, BJ, 72 h) of the same molecule?
**A.** 37.4 µM

**Q.** How did the IC50 [1] turn out when `C=C(C)[C@@H]1CC[C@]2(C(=O)OCCOC)CC[C@]3(C)[C@H](CC[C@@H]4[C@@]5(C)CC[C@H](O)C(C)(C)[C@@H]5CC[C@]43C)[C@@H]12` was run?
**A.** 32.8 µM

**Q.** And the IC50 ([2]; Homo sapiens, MCF7, 72 h)?
**A.** 35.2 µM

**Q.** And the IC50 ([3]; Homo sapiens, HeLa, 72 h)?
**A.** 32.4 µM

**Q.** What about the IC50 ([4]; Homo sapiens, G-361, 72 h) of the same molecule?
**A.** 30.3 µM

**Q.** What about the IC50 ([5]; Homo sapiens, BJ, 72 h) of the same molecule?
**A.** 43.7 µM

**Q.** `C=C(C)[C@@H]1CC[C@]2(C(=O)O[C@@H]3O[C@H](COC(C)=O)[C@@H](OC(C)=O)[C@H](OC(C)=O)[C@H]3OC(C)=O)CC[C@]3(C)[C@H](CC[C@@H]4[C@@]5(C)CC[C@H](O)C(C)(C)[C@@H]5CC[C@]43C)[C@@H]12` was tested. Which IC50 [1] did it give?
**A.** > 50 µM

**Q.** What about the IC50 ([2]; Homo sapiens, MCF7, 72 h) of the same molecule?
**A.** > 50 µM

**Q.** And the IC50 ([3]; Homo sapiens, HeLa, 72 h)?
**A.** > 50 µM

**Q.** What about the IC50 ([4]; Homo sapiens, G-361, 72 h) of the same molecule?
**A.** > 50 µM

**Q.** What about the IC50 ([5]; Homo sapiens, BJ, 72 h) of the same molecule?
**A.** > 50 µM

**Q.** `CC(=O)OC[C@@]1(C(=O)OCC(=O)O)CC[C@]2(C)[C@H](CC[C@@H]3[C@@]4(C)CC[C@H](OC(C)=O)C(C)(C)[C@@H]4CC[C@]32C)C1=O` was tested. Which IC50 [1] did it give?
**A.** 32.4 µM

**Q.** What about the IC50 ([2]; Homo sapiens, MCF7, 72 h) of the same molecule?
**A.** > 50 µM

**Q.** And the IC50 ([3]; Homo sapiens, HeLa, 72 h)?
**A.** > 50 µM

**Q.** And the IC50 ([4]; Homo sapiens, G-361, 72 h)?
**A.** > 50 µM

**Q.** And the IC50 ([5]; Homo sapiens, BJ, 72 h)?
**A.** 7 µM

**Q.** Which results are given for `CC(C)[C@@H]1CC[C@]2(C(=O)OCCN3CCCC3)CC[C@]3(C)[C@H](CC[C@@H]4[C@@]5(C)CC[C@H](O)C(C)(C)[C@@H]5CC[C@]43C)[C@@H]12`?
**A.** IC50 [1]: 2.8 µM; IC50 ([2]; Homo sapiens, MCF7, 72 h): 10.3 µM; IC50 ([3]; Homo sapiens, HeLa, 72 h): 7.7 µM; IC50 ([4]; Homo sapiens, G-361, 72 h): 8.2 µM; IC50 ([5]; Homo sapiens, BJ, 72 h): 17 µM

**Q.** `COCCOCCOC(=O)[C@]12CC[C@@H](C(C)C)[C@@H]1[C@H]1CC[C@@H]3[C@@]4(C)CC[C@H](O)C(C)(C)[C@@H]4CC[C@@]3(C)[C@]1(C)CC2` was tested. Which IC50 [1] did it give?
**A.** 32.3 µM

**Q.** What about the IC50 ([2]; Homo sapiens, MCF7, 72 h) of the same molecule?
**A.** 31.3 µM

**Q.** What about the IC50 ([3]; Homo sapiens, HeLa, 72 h) of the same molecule?
**A.** 26.4 µM

**Q.** And the IC50 ([4]; Homo sapiens, G-361, 72 h)?
**A.** 24 µM

**Q.** What about the IC50 ([5]; Homo sapiens, BJ, 72 h) of the same molecule?
**A.** 30.5 µM

**Q.** `C=C(C)[C@@H]1CC[C@]2(C(=O)OCCOCCOC)CC[C@]3(C)[C@H](CC[C@@H]4[C@@]5(C)CC[C@H](O)C(C)(C)[C@@H]5CC[C@]43C)[C@@H]12` was tested. Which IC50 [1] did it give?
**A.** 30.7 µM

**Q.** What about the IC50 ([2]; Homo sapiens, MCF7, 72 h) of the same molecule?
**A.** 36.4 µM

**Q.** And the IC50 ([3]; Homo sapiens, HeLa, 72 h)?
**A.** 14.5 µM

**Q.** And the IC50 ([4]; Homo sapiens, G-361, 72 h)?
**A.** 26.9 µM

**Q.** And the IC50 ([5]; Homo sapiens, BJ, 72 h)?
**A.** > 50 µM

**Q.** With `CC(=O)O[C@H]1CC[C@]2(C)[C@H]3CC[C@@H]4C5=C(C(C)C)C(=O)C(=O)[C@]5(C(=O)OCCN5CCOCC5)CC[C@@]4(C)[C@]3(C)CC[C@H]2C1(C)C` as the molecule, how does the IC50 [1] read?
**A.** 8.1 µM

**Q.** And the IC50 ([2]; Homo sapiens, MCF7, 72 h)?
**A.** 18.3 µM

**Q.** And the IC50 ([3]; Homo sapiens, HeLa, 72 h)?
**A.** 5.5 µM

**Q.** What about the IC50 ([4]; Homo sapiens, G-361, 72 h) of the same molecule?
**A.** 2.2 µM

**Q.** What about the IC50 ([5]; Homo sapiens, BJ, 72 h) of the same molecule?
**A.** 25.3 µM

**Q.** With `CC(=O)OC[C@H]1O[C@@H](OC(=O)[C@@]23CC[C@]4(C)[C@H](CC[C@@H]5[C@@]6(C)CC[C@H](OC(C)=O)C(C)(C)[C@@H]6CC[C@]54C)C2=C(C(C)C)C(=O)C3)[C@H](OC(C)=O)[C@@H](OC(C)=O)[C@@H]1OC(C)=O` as the molecule, how does the IC50 [1] read?
**A.** 9.1 µM

**Q.** What about the IC50 ([2]; Homo sapiens, MCF7, 72 h) of the same molecule?
**A.** 3.8 µM

**Q.** And the IC50 ([3]; Homo sapiens, HeLa, 72 h)?
**A.** 9.8 µM

**Q.** And the IC50 ([4]; Homo sapiens, G-361, 72 h)?
**A.** 4.3 µM

**Q.** And the IC50 ([5]; Homo sapiens, BJ, 72 h)?
**A.** > 50 µM

**Q.** What does the source list for `CC(=O)O[C@H]1CC[C@]2(C)[C@H]3CC[C@@H]4C5=C(C(C)C)C(=O)C[C@]5(C(=O)OCC(=O)O)CC[C@@]4(C)[C@]3(C)CC[C@H]2C1(C)C`?
**A.** IC50 [1]: 24.2 µM; IC50 ([2]; Homo sapiens, MCF7, 72 h): > 50 µM; IC50 ([3]; Homo sapiens, HeLa, 72 h): 47.9 µM; IC50 ([4]; Homo sapiens, G-361, 72 h): 45.6 µM; IC50 ([5]; Homo sapiens, BJ, 72 h): > 50 µM

**Q.** For `CC(=O)OC[C@@]1(C(=O)OCCBr)CC[C@]2(C)[C@H](CC[C@@H]3[C@@]4(C)CC[C@H](OC(C)=O)C(C)(C)[C@@H]4CC[C@]32C)[C@@H]1O`, which IC50 [1] is on record?
**A.** > 50 µM

**Q.** What about the IC50 ([2]; Homo sapiens, MCF7, 72 h) of the same molecule?
**A.** > 50 µM

**Q.** What about the IC50 ([3]; Homo sapiens, HeLa, 72 h) of the same molecule?
**A.** > 50 µM

**Q.** And the IC50 ([4]; Homo sapiens, G-361, 72 h)?
**A.** > 50 µM

**Q.** And the IC50 ([5]; Homo sapiens, BJ, 72 h)?
**A.** > 50 µM
